The results in this text go back to ChEMBL document CHEMBL1201862, “PubChem BioAssay data set” (2004).

The GI50 is the concentration giving 50% growth inhibition.

Common to all, as to test: DTP human tumour cell line panel, 48 h
Test [1] relates to SR.
For test [2], the system named is SW-620.
The test system of test [3] is HCC 2998.
Test [4] concerns NCI-H460.
In test [5] the test system is HCT-15.
Test [6] deals with SK-MEL-2.
In test [7] the test system is COLO 205.
The subject of test [8] is SK-MEL-28.
Test [9] deals with MOLT-4.
In test [10] the test system is NCI-H23.
For test [11], the system named is SK-MEL-5.
Test [12] concerns KM12.
Test [13] deals with UO-31.
Test [14] concerns PC-3.
In test [15] the test system is M14.
In test [16] the test system is MDA-N.
The test system of test [17] is DU-145.
The test system of test [18] is A549.
Test [19] has as its system SK-OV-3.

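48-hour exposure; five concentrations; linearly interpolated endpoints. GI50 is the concentration that inhibits growth by half.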 Calls of active or inactive are those of the source. Cut-off read from the data, not from the text of the source: active = GI50 up to about 1.1 µM and inactive = higher.

For the compound `C=C(C)C12OC1[C@@]1(C)C(=CC2=O)CCC(O)[C@@H]1C` (some centres undefined), the GI50 in test [1] was 1.84 µM (inactive); in [2], 2.39 µM (inactive); in test [3], 0.718 µM (active); in [4], 0.743 µM (active); in [5] it was 1.92 µM; in test [6], 2.34 µM (inactive). Moreover, the GI50 was 1.61 µM (inactive) in [7]; 3.89 µM (inactive) in [8]; 0.863 µM (active) in [9]; 2.26 µM (inactive) in [10]; 3.22 µM (inactive) in test [11]; 2.44 µM (inactive) in [12]. The GI50 in test [13] was 1.49 µM (inactive); in test [14], 2.65 µM (inactive); in test [15], 3.72 µM (inactive); in [16], 2.68 µM (inactive); in test [17], 1.05 µM (active); in test [18], 1.42 µM (inactive).
Take `O=C1OC(C(O)CO)C(O)=C1O` (centres undefined): the GI50 in test [1] was 55.3 µM (inactive); in test [2] it was > 100 µM (inactive); in [3], > 100 µM (inactive); in test [4], > 100 µM (inactive); in test [5], greater than 100 µM; in test [6], > 100 µM (inactive). Besides, the GI50 in [7], in [8], in test [9], in test [10], in test [11] and in [12] was > 100 µM (inactive) in each case. Also, the GI50 in [13], in [14], in test [15], in [16], in [17] and in test [18] was > 100 µM (inactive) throughout.
For the compound `CC1=C(/C=C/C(=O)O)C(C)(C)CCC1`, the GI50 in [1] is > 100 µM (inactive); in test [2], > 100 µM (inactive); in [3], > 100 µM (inactive); in test [4], > 100 µM (inactive); in test [5], greater than 100 µM; in test [6], > 100 µM (inactive). Moreover, the GI50 in [7], in test [8], in test [10], in test [11], in test [19] and in [13] was > 100 µM (inactive) in each case. The GI50 in test [14], in [15], in test [16], in test [17] and in test [18] was > 100 µM (inactive) throughout.
`COc1ccc(/N=N/C(=N\c2ccc(F)cc2)c2ccc(N(CCC#N)CCC#N)cc2)cc1`: the GI50 in test [1] is 21.7 µM (inactive); in test [2] it was 41.6 µM (inactive); in [3], 19.1 µM (inactive); in test [4] it was 20.2 µM (inactive); in [5], 54 µM; in [7] it was 39.2 µM (inactive). The GI50 is 39 µM (inactive) in test [8]; 31.2 µM (inactive) in test [9]; 17.4 µM (inactive) in [10]; 12.4 µM (inactive) in [11]; 16.9 µM (inactive) in test [12]; 58.5 µM (inactive) in test [19]. In addition, the GI50 in test [13] is 68.5 µM (inactive); in test [14] it was 24.1 µM (inactive); in test [15] it was 28.6 µM (inactive); in [16] it was 29.9 µM (inactive); in test [17], 33 µM (inactive); in test [18], 18.7 µM (inactive).
Consider `Cc1ccc(C2CC(=O)CC(c3ccc(C)cc3)C23C(=O)NC(=O)NC3=O)cc1` (centres undefined), for which the GI50 was 60.1 µM (inactive) in test [1]; > 100 µM (inactive) in [2]; > 100 µM (inactive) in test [3]; > 100 µM (inactive) in [4]; greater than 100 µM in test [5]; > 100 µM (inactive) in [6]. The GI50 in test [7] was > 100 µM (inactive); in [8], > 100 µM (inactive); in test [9] it was 45 µM (inactive); in test [10], > 100 µM (inactive); in test [11], > 100 µM (inactive); in [12] it was > 100 µM (inactive). Besides, the GI50 in test [13], in test [14], in test [15], in test [16] and in test [17] was > 100 µM (inactive) throughout.
`Cc1c(-c2ccccc2)c(C#N)c2nnn(-c3ccc([N+](=O)[O-])cc3)c(=O)n12`: the GI50 in test [1] was 7.31 µM (inactive); in [2] it was 7.78 µM (inactive); in test [3], 26.6 µM (inactive); in [4], 22.5 µM (inactive); in test [5] it was 20.7 µM; in test [6], 8.91 µM (inactive). Besides, the GI50 in [7] is 7.35 µM (inactive); in test [8] it was 32.6 µM (inactive); in [10], 21.3 µM (inactive); in test [11], 33 µM (inactive); in test [12], 12.7 µM (inactive); in test [19] it was 23.4 µM (inactive). Moreover, the GI50 in test [14] was 3.48 µM (inactive); in test [16], 40.6 µM (inactive); in [17] it was 5.38 µM (inactive).
As to `CC1(CO)COC(C)(C)OC1`, the GI50 in test [1] is > 100 µM (inactive); in test [2], > 100 µM (inactive); in test [3], > 100 µM (inactive); in [4], > 100 µM (inactive); in [5], greater than 100 µM; in [7], > 100 µM (inactive). Further, the GI50 in [8], in test [9], in test [10], in test [11], in [12] and in [19] was > 100 µM (inactive) in each case. Moreover, the GI50 in test [13], in test [14], in [16], in test [17] and in test [18] was > 100 µM (inactive) each time.
On to `COc1cc(OC)cc(-n2c(N)c(C#N)c3ccc([N+](=O)[O-])cc3c2=O)c1`, for which the GI50 is 14.2 µM (inactive) in [1]; > 100 µM (inactive) in [2]; 84.1 µM (inactive) in test [3]; 30.8 µM (inactive) in [4]; greater than 100 µM in [5]; 41.2 µM (inactive) in [6]. Moreover, the GI50 in [7] was > 100 µM (inactive); in [8], 43.1 µM (inactive); in [10], 36.4 µM (inactive); in [11], 30.3 µM (inactive); in test [12], > 100 µM (inactive); in test [13], 19.5 µM (inactive). For the same compound, the GI50 in test [14] is 41.3 µM (inactive); in [16], 80 µM (inactive); in test [17], 20.8 µM (inactive); in test [18], 43.4 µM (inactive).
Regarding `O=C(N/S(=N/S(=O)(=O)c1ccc(Br)cc1)C(Cl)(Cl)Cl)c1ccccc1` (centres undefined), the GI50 is 70 µM (inactive) in test [1]; > 100 µM (inactive) in [2]; > 100 µM (inactive) in [4]; greater than 100 µM in test [5]; > 100 µM (inactive) in test [6]; > 100 µM (inactive) in [7]. Also, the GI50 in test [8], in test [9], in test [10], in test [11], in test [12] and in [19] was > 100 µM (inactive) each time. Further, the GI50 in [13], in test [14], in test [15], in [16], in test [17] and in test [18] was > 100 µM (inactive) in each case.
